In patent US9163012B2, “Carbamate and urea inhibitors of 11β-hydroxysteroid dehydrogenase 1” (Vitae Pharmaceuticals, Inc., priority 2009, dated 2015):
Read-outs that look alike come from different tables or passages of the source.

Biological target: 11β-HSD1 (Homo sapiens (Human), UniProt P28845)
Test: Biological Test Example 1: inhibition of a microsomal preparation of 11β-HSD1 (SPA)
Type: biochemical
Conditions: Biological Test Example 1; for Average % inhibition at 100 nM: 100 nM compound
Protocol: All reactions were carried out at rt in 96 well clear flexible PET Microbeta plates (PerkinElmer). […] After a 10 minute pre-incubation, 50 μL of enzyme solution containing microsomes isolated from CHO cells overexpressing human 11-HSD1 (10-20 μg/ml of total protein) was added, and the plates were incubated for 90 minutes at rt. The reaction was stopped by adding 50 μl of the SPA beads suspension containing 10 μM […], 5 mg/ml protein A coated YSi SPA beads (GE Healthcare) and 3.3 μg/ml of anti-cortisol antibody (East Coast Biologics) in Superblock buffer (Bio-Rad). The plates were shaken for 120 minutes at rt, and the SPA signal corresponding to [^3H]cortisol was measured on a Microbeta plate reader.

[1] = microsomes from CHO cells overexpressing human 11β-HSD1, read-out: IC50 Range

Sequence of 11β-HSD1 (P28845 whole entry): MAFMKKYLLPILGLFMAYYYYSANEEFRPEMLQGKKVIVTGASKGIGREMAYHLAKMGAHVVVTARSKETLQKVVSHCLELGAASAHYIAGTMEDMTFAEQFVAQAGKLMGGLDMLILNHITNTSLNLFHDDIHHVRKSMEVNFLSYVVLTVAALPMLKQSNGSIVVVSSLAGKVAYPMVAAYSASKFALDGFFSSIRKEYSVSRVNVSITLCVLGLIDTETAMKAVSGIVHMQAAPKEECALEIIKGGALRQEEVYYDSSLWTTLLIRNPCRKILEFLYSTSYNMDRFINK

SMILES | Average % inhibition at 100 nM [%] | IC50 [1] [nM] | IC50 (read-out: IC50) [nM]
Cc1ccc(C2CCN(C(=O)OC3C4CC5CC3CC(C(N)=O)(C5)C4)C2)nn1 (single isomer, unassigned) [EXAMPLE 37 Isomer 1, trans-1-carbamoyl-4-adamantyl 3-(6-methylpyridazin-3-yl)pyrrolidine-1-carboxylate] | 76.6 | – | –
Cc1ccc(C2CCN(C(=O)OC3C4CC5CC3CC(C(N)=O)(C5)C4)C2)nn1 (single isomer, unassigned) [EXAMPLE 37 Isomer 2] | 13.3 | – | –
Cc1ccnc(C2CCN(C(=O)OC3C4CC5CC3CC(C(N)=O)(C5)C4)C2)n1 (single isomer, unassigned) [EXAMPLE 38 Isomer 1, 1-carbamoyl-4-adamantyl 3-(4-methylpyrimidin-2-yl)pyrrolidine-1-carboxylate] | 93.1 | < 100 | 3.34
Cc1ccnc(C2CCN(C(=O)OC3C4CC5CC3CC(C(N)=O)(C5)C4)C2)n1 (single isomer, unassigned) [EXAMPLE 38 Isomer 2, 1-carbamoyl-4-adamantyl 3-(4-methylpyrimidin-2-yl)pyrrolidine-1-carboxylate] | 10.7 | > 100 | > 100
Cc1cnc(C2CCN(C(=O)OC3C4CC5CC3CC(C(N)=O)(C5)C4)C2)nc1 (single isomer, unassigned) [EXAMPLE 39 Isomer 1, 1-carbamoyl-4-adamantyl 3-(5-methylpyrimidin-2-yl)pyrrolidine-1-carboxylate] | 59.7 | < 100 | 2.99
Cc1cnc(C2CCN(C(=O)OC3C4CC5CC3CC(C(N)=O)(C5)C4)C2)nc1 (single isomer, unassigned) [EXAMPLE 39 Isomer 2, 1-carbamoyl-4-adamantyl 3-(5-methylpyrimidin-2-yl)pyrrolidine-1-carboxylate] | 1.8 | > 100 | > 100
Cc1cc(C2CCN(C(=O)OC3C4CC5CC3CC(C(N)=O)(C5)C4)C2)nn1C (single isomer, unassigned) [EXAMPLE 40 Isomer 1, 1-carbamoyl-4-adamantyl 3-(1,5-dimethyl-1H-pyrazol-3-yl)pyrrolidine-1-carboxylate] | 90.8 | < 100 | 6.88
Cc1cc(C2CCN(C(=O)OC3C4CC5CC3CC(C(N)=O)(C5)C4)C2)nn1C (single isomer, unassigned) [EXAMPLE 40 Isomer 2, 1-carbamoyl-4-adamantyl 3-(1,5-dimethyl-1H-pyrazol-3-yl)pyrrolidine-1-carboxylate] | 5.2 | > 100 | > 100
NC(=O)C12CC3CC(C1)C(OC(=O)N1CCC(c4ncc(F)cn4)C1)C(C3)C2 (single isomer, unassigned) [EXAMPLE 41 Isomer 1, 1-carbamoyl-4-adamantyl 3-(5-fluoropyrimidin-2-yl)pyrrolidine-1-carboxylate] | 92.3 | – | –
NC(=O)C12CC3CC(C1)C(OC(=O)N1CCC(c4ncc(F)cn4)C1)C(C3)C2 (single isomer, unassigned) [EXAMPLE 41 Isomer 2, 1-carbamoyl-4-adamantyl 3-(5-fluoropyrimidin-2-yl)pyrrolidine-1-carboxylate] | 69.0 | – | –
Cc1csc(C2CCN(C(=O)OC3C4CC5CC3CC(C(N)=O)(C5)C4)C2)n1 (single isomer, unassigned) [EXAMPLE 42 Isomer 1, transl-carbamoyl-4-adamantyl 3-(4-methylthiazol-2-yl)pyrrolidine-1-carboxylate] | 91.8 | – | –
Cc1csc(C2CCN(C(=O)OC3C4CC5CC3CC(C(N)=O)(C5)C4)C2)n1 (single isomer, unassigned) [EXAMPLE 42 Isomer 2, cis-1-carbamoyl-4-adamantyl 3-(4-methylthiazol-2-yl)pyrrolidine-1-carboxylate] | 21.8 | – | –
Cc1cc(C)nc(C2CCN(C(=O)OC3C4CC5CC3CC(C(N)=O)(C5)C4)C2)n1 (single isomer, unassigned) [EXAMPLE 43 Isomer 1, trans-1-carbamoyl-4-adamantyl 3-(4,6-dimethylpyrimidin-2-yl)pyrrolidine-1-carboxylate] | 86.5 | < 100 | 5.72
Cc1cc(C)nc(C2CCN(C(=O)OC3C4CC5CC3CC(C(N)=O)(C5)C4)C2)n1 (single isomer, unassigned) [EXAMPLE 43 Isomer 2, cis-1-carbamoyl-4-adamantyl 3-(4,6-dimethylpyrimidin-2-yl)pyrrolidine-1-carboxylate] | −1.8 | > 100 | > 100
COc1cnc(C2CCN(C(=O)OC3C4CC5CC3CC(C(N)=O)(C5)C4)C2)nc1 (single isomer, unassigned) [EXAMPLE 44 Isomer 1, 1-carbamoyl-4-adamantyl 3-(5-methoxypyrimidin-2-yl)pyrrolidine-1-carboxylate] | 95.2 | – | –
COc1cnc(C2CCN(C(=O)OC3C4CC5CC3CC(C(N)=O)(C5)C4)C2)nc1 (single isomer, unassigned) [EXAMPLE 44 Isomer 2, 1-carbamoyl-4-adamantyl 3-(5-methoxypyrimidin-2-yl)pyrrolidine-1-carboxylate] | 2.4 | – | –
O=C(OC1C2CC3CC1CC(C(=O)O)(C3)C2)N1CCC(c2ncc(Cl)cn2)C1 (single isomer, unassigned) [EXAMPLE 46 Isomer 1, trans-4-((3-(5-chloropyrimidin-2-yl)pyrrolidine-1-carbonyl)oxy)adamantane-1-carboxylic acid] | 22.4 | > 100 | > 100
O=C(OC1C2CC3CC1CC(C(=O)O)(C3)C2)N1CCC(c2ncc(Cl)cn2)C1 (single isomer, unassigned) [EXAMPLE 46 Isomer 2, cis-4-((3-(5-chloropyrimidin-2-yl)pyrrolidine-1-carbonyl)oxy)adamantane-1-carboxylic acid] | 3.8 | > 100 | > 100
NC(=O)c1cnc(C2CCN(C(=O)OC3C4CC5CC3CC(C(N)=O)(C5)C4)C2)nc1 (single isomer, unassigned) [EXAMPLE 47 Isomer 1, 1-carbamoyl-4-adamantyl 3-(5-carbamoylpyrimidin-2-yl)pyrrolidine-1-carboxylate] | 6.1 | > 100 | > 100
NC(=O)c1cnc(C2CCN(C(=O)OC3C4CC5CC3CC(C(N)=O)(C5)C4)C2)nc1 (single isomer, unassigned) [EXAMPLE 47 Isomer 2, 1-carbamoyl-4-adamantyl 3-(5-carbamoylpyrimidin-2-yl)pyrrolidine-1-carboxylate] | 55.6 | < 100 | 91.6
NC(=O)C12CC3CC(C1)C(OC(=O)N1CCC(c4nccc(C(F)(F)F)n4)C1)C(C3)C2 (single isomer, unassigned) [EXAMPLE 48 Isomer 1, trans-1-carbamoyl-4-adamantyl 3-(4-(trifluoromethyl)pyrimidin-2-yl)pyrrolidine-1-carboxylate] | 94.5 | – | –
